Data reported in PubChem BioAssay AID1963978 (Molecular Pharmacology Branch, DTP, NCI, 2024).

Tested on: 616215-338-R-J1-PDC spheroids with HUVEC/MSC, viability
Assay: Anticancer human tumor 616215-338-R-J1-PDC patient-derived colon adenocarcinoma cell line growth inhibition [PI3K]
Details: for viability, T/C: stronger effect = lower value
Procedure, shortened: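 Tumor cells were combined with HUVEC and MSCs into spheroids, then dosed with PI3K-inhibitor combinations over half-log ranges capped near clinical Cmax or 10 microM.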

[1] = curve of first compound, second compound 0.0316 µM
[2] = curve of first compound, second compound 0.1 µM
[3] = curve of first compound, second compound 0.316 µM
[4] = curve of first compound, second compound 1 µM
[5] = second compound 0.0316 µM, first compound 0.0316 µM
[6] = second compound 0.0316 µM, first compound 0.1 µM
[7] = second compound 0.0316 µM, first compound 0.316 µM
[8] = second compound 0.0316 µM, first compound 1 µM
[9] = second compound 0.0316 µM, first compound 3.16 µM
[10] = second compound 0.0316 µM, first compound 10 µM
[11] = second compound 0.1 µM, first compound 0.0316 µM
[12] = second compound 0.1 µM, first compound 0.1 µM
[13] = second compound 0.1 µM, first compound 0.316 µM
[14] = second compound 0.1 µM, first compound 1 µM
[15] = second compound 0.1 µM, first compound 3.16 µM
[16] = second compound 0.1 µM, first compound 10 µM
[17] = second compound 0.316 µM, first compound 0.0316 µM
[18] = second compound 0.316 µM, first compound 0.1 µM
[19] = second compound 0.316 µM, first compound 0.316 µM
[20] = second compound 0.316 µM, first compound 1 µM
[21] = second compound 0.316 µM, first compound 3.16 µM
[22] = second compound 0.316 µM, first compound 10 µM
[23] = second compound 1 µM, first compound 0.0316 µM
[24] = second compound 1 µM, first compound 0.1 µM
[25] = second compound 1 µM, first compound 0.316 µM
[26] = second compound 1 µM, first compound 1 µM
[27] = second compound 1 µM, first compound 3.16 µM
[28] = second compound 1 µM, first compound 10 µM
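Further: spheroids exposed to agents for seven days before the viability read.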

CC1(C)CCC(Nc2ncc(C(F)(F)F)c(-c3c[nH]c4c(P(C)(C)=O)c(C#N)ccc34)n2)CN1 (stereo not drawn)
viability, T/C (compound 0.1 µM): 54.8% [middle of 4 runs] | viability, T/C (compound 1 µM): 60.8% [middle of 4 runs] | viability, T/C (compound 3.16 µM): 55.7% [middle of 4 runs] | viability, T/C (compound 10 µM): 0.49% [middle of 4 runs]

C=CC(=O)N1CCN(c2nc(=O)n(-c3c(C)ccnc3C(C)C)c3nc(-c4c(O)cccc4F)c(F)cc23)C(C)C1 (stereo not drawn) + CC(Nc1ncnc2nc[nH]c12)c1cc2cccc(Cl)c2c(=O)n1-c1ccccc1
IC50 [1]: > 10 µM | IC50 [2]: > 10 µM | IC50 [3]: > 10 µM | IC50 [4]: > 10 µM | IC50 (curve of first compound, second compound 3.16 µM): > 10 µM | IC50 (curve of first compound, second compound 10 µM): > 10 µM | viability, T/C [5]: 89% | viability, T/C [6]: 92.5% | viability, T/C [7]: 109% | viability, T/C [8]: 104% | viability, T/C [9]: 93.3% | viability, T/C [10]: 95.8% | viability, T/C [11]: 100% | viability, T/C [12]: 99.3% | viability, T/C [13]: 98% | viability, T/C [14]: 93.4% | viability, T/C [15]: 96.8% | viability, T/C [16]: 89.1% | viability, T/C [17]: 99.7% | viability, T/C [18]: 107% | viability, T/C [19]: 92.8% | viability, T/C [20]: 96.5% | viability, T/C [21]: 91.4% | viability, T/C [22]: 74.7% | viability, T/C [23]: 101% | viability, T/C [24]: 99.5% | viability, T/C [25]: 106% | viability, T/C [26]: 96.9% | viability, T/C [27]: 94% | viability, T/C [28]: 88.5% | viability, T/C (second compound 3.16 µM, first compound 0.0316 µM): 101% | viability, T/C (second compound 3.16 µM, first compound 0.1 µM): 104% | viability, T/C (second compound 3.16 µM, first compound 0.316 µM): 98% | viability, T/C (second compound 3.16 µM, first compound 1 µM): 105% | viability, T/C (second compound 3.16 µM, first compound 3.16 µM): 85.4% | viability, T/C (second compound 3.16 µM, first compound 10 µM): 78.8% | viability, T/C (second compound 10 µM, first compound 0.0316 µM): 106% | viability, T/C (second compound 10 µM, first compound 0.1 µM): 107% | viability, T/C (second compound 10 µM, first compound 0.316 µM): 108% | viability, T/C (second compound 10 µM, first compound 1 µM): 95.5% | viability, T/C (second compound 10 µM, first compound 3.16 µM): 99% | viability, T/C (second compound 10 µM, first compound 10 µM): 82.6%

CC1(C)CCC(Nc2ncc(C(F)(F)F)c(-c3c[nH]c4c(P(C)(C)=O)c(C#N)ccc34)n2)CN1 (stereo not drawn) + COc1c(OCCCN2CCOCC2)ccc2c3n(c(=NC(=O)c4cnc(N)nc4)nc12)CCN3
IC50 (curve of first compound, second compound 0.00316 µM): < 0.0316 µM | IC50 (curve of first compound, second compound 0.01 µM): < 0.0316 µM | IC50 [1]: < 0.0316 µM | IC50 [2]: 0.188 µM | IC50 [3]: < 0.0316 µM | IC50 [4]: < 0.0316 µM | viability, T/C (second compound 0.00316 µM, first compound 0.0316 µM): 47.5% | viability, T/C (second compound 0.00316 µM, first compound 0.1 µM): 43.1% | viability, T/C (second compound 0.00316 µM, first compound 0.316 µM): 31.6% | viability, T/C (second compound 0.00316 µM, first compound 1 µM): 56.8% | viability, T/C (second compound 0.00316 µM, first compound 3.16 µM): 48.9% | viability, T/C (second compound 0.00316 µM, first compound 10 µM): 0.29% | viability, T/C (second compound 0.01 µM, first compound 0.0316 µM): 40.2% | viability, T/C (second compound 0.01 µM, first compound 0.1 µM): 29% | viability, T/C (second compound 0.01 µM, first compound 0.316 µM): 38.7% | viability, T/C (second compound 0.01 µM, first compound 1 µM): 72.4% | viability, T/C (second compound 0.01 µM, first compound 3.16 µM): 44.5% | viability, T/C (second compound 0.01 µM, first compound 10 µM): 0.67% | viability, T/C [5]: 34.5% | viability, T/C [6]: 33.7% | viability, T/C [7]: 41.5% | viability, T/C [8]: 44.8% | viability, T/C [9]: 37.4% | viability, T/C [10]: 0.14% | viability, T/C [11]: 63.7% | viability, T/C [12]: 43.8% | viability, T/C [13]: 47.6% | viability, T/C [14]: 41.6% | viability, T/C [15]: 21.4% | viability, T/C [16]: 0.09% | viability, T/C [17]: 29.9% | viability, T/C [18]: 23.8% | viability, T/C [19]: 20.1% | viability, T/C [20]: 18.9% | viability, T/C [21]: 8.61% | viability, T/C [22]: 0.69% | viability, T/C [23]: 20% | viability, T/C [24]: 19.6% | viability, T/C [25]: 14.9% | viability, T/C [26]: 16.1% | viability, T/C [27]: 8.67% | viability, T/C [28]: 0.24%

CC(Cn1ccc(-c2ccc(C#N)c(Cl)c2)n1)NC(=O)c1cc(C(C)O)[nH]n1 (stereo not drawn)
viability, T/C (compound 0.0316 µM): 99.3% [middle of 4 runs] | viability, T/C (compound 0.316 µM): 97.2% [middle of 4 runs] | viability, T/C (compound 1 µM): 101% [middle of 4 runs] | viability, T/C (compound 10 µM): 101% [middle of 4 runs] | IC50 (curve of compound): > 10 µM
